# From paper PMC9299988, “Substrate‐Inspired Fragment Merging and Growing Affords Efficacious LasB Inhibitors” (Angewandte Chemie (International Ed. in English), 2021)
# Where two headings read alike, the source gives them in different places.
# How the values were obtained:
# [1] = molecular target: T1, LasB (Pseudomonas aeruginosa, UniProt Q02RJ6); experiment: biochemical; assay type: biochemical
# T1 construct: The purification of LasB from P. aeruginosa P14 supernatant and the; made in house; host or cells: P. aeruginosa PA14 (native producer), culture supernatant
# Experimental: LasB Inhibition Assay. […]
# (§1) Preparation of P. aeruginosa supernatant and LasB activity evaluation. A culture of a single colony of PA14 was grown in lysogeny broth medium at 28 °C with constant shaking at 130 rpm for 3 days. Then, the culture was centrifuged at 4 °C, 5000 rpm for 30 minutes. Finally, the supernatant was passed through a membrane filter of […] to sterilize it. The supernatant
# [2] = molecular target: MMP-3 (Homo sapiens, UniProt P08254); experiment: Inhibition assay with human off-target MMP-3; assay type: biochemical; conditions: Table S2; concentration not given
# [3] = molecular target: T2, MMP-1 (Homo sapiens, UniProt P03956); experiment: Inhibition assay with human off-target MMP-1; assay type: biochemical; conditions: Table S2; concentration not given
# T2 sequence (P03956 100-469): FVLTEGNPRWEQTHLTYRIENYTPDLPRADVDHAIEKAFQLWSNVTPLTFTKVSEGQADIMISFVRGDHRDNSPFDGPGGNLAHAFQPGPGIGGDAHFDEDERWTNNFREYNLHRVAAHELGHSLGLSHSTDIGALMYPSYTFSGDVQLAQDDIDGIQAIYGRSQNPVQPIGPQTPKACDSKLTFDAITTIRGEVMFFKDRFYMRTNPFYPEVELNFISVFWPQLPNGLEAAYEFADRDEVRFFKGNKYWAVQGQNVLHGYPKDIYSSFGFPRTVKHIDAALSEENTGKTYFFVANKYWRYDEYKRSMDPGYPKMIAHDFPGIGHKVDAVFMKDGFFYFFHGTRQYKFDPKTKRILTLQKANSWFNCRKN
# [4] = molecular target: MMP-8 (Homo sapiens, UniProt P22894); experiment: Inhibition assay with human off-target MMP-8; assay type: biochemical; conditions: Table S2; concentration not given
# [5] = molecular target: T3, MMP-2 (Homo sapiens, UniProt P08253); experiment: Inhibition assay with human off-target MMP-2; assay type: biochemical; conditions: Table S2; concentration not given
# T3 sequence (P08253 110-660): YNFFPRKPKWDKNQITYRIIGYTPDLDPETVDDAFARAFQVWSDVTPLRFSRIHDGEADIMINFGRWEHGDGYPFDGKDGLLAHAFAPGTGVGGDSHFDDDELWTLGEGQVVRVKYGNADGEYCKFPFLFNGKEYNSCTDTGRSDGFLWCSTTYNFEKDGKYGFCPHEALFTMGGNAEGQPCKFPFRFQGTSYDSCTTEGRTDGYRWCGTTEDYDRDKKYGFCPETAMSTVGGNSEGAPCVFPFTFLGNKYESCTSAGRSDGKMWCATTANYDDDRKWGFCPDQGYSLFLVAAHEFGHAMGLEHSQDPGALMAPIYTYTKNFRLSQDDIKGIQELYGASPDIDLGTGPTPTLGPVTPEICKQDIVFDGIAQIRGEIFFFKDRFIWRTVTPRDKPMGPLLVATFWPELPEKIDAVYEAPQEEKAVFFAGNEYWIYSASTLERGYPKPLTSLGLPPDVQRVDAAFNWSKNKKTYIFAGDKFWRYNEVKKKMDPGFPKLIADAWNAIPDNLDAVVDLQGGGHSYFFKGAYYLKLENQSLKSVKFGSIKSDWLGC
# [6] = Cytotoxicity assay, HepG2; conditions: human, HepG2 cells
# [7] = molecular target: MMP-14 (Homo sapiens, UniProt P50281); experiment: Inhibition assay with human off-target MMP-14; assay type: biochemical; conditions: Table S2; concentration not given
# [8] = Cytotoxicity assay, A549; conditions: human, A549 cells
# [9] = system: P. aeruginosa PA14; experiment: Minimum inhibitory concentration (MIC) assay; assay type: cell-based, Pseudomonas aeruginosa
# [10] = molecular target: T4, HDAC-8 (Homo sapiens, UniProt Q9BY41); experiment: Inhibition assay with human off-target HDAC-8; assay type: biochemical; conditions: Table S2
# T4 sequence (Q9BY41 1-377): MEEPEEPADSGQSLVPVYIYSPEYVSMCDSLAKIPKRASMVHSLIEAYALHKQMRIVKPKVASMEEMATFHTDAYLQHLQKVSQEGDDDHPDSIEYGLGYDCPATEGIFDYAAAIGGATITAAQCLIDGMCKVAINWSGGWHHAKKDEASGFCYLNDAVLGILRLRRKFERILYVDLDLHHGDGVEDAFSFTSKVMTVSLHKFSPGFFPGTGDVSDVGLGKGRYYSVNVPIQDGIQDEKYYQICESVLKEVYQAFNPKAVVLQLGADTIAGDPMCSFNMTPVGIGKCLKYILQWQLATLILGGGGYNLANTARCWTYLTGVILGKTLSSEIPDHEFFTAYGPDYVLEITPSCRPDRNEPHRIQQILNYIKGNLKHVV
# [11] = molecular target: HDAC-3 (Homo sapiens, UniProt O15379); experiment: Inhibition assay with human off-target HDAC-3; assay type: biochemical; conditions: Table S2
# [12] = molecular target: T5, MMP-7 (Homo sapiens, UniProt P09237); experiment: Inhibition assay with human off-target MMP-7; assay type: biochemical; conditions: Table S2; concentration not given
# T5 sequence (P09237 95-267): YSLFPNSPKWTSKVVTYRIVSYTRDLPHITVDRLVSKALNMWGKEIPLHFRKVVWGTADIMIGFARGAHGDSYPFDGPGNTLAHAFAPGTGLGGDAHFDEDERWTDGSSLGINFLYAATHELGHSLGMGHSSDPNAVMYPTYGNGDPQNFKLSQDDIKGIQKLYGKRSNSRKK
# [13] = Cytotoxicity assay, HEK 293; conditions: human, HEK 293 cells
# [14] = molecular target: ADAM17 (Homo sapiens, UniProt P78536); experiment: Inhibition assay with human off-target ADAM17 (TACE); assay type: biochemical
# [15] = molecular target: T1, LasB; experiment: Calculation of Ligand Efficiency (LE) and Lipophilic Ligand Efficiency (LLE); conditions: calculated
# Description: Although structure‐guided exploration of the N‐aryl ring substitution provided us with a strong starting point for lead optimization, systematic variation of the substituent in the α‐position (R^1) should be considered to exploit the lipophilicity of the S2′ pocket. In addition, compound 7 g only occupies a small fraction (approx. 24%) of the total predicted binding pocket volume, leaving the S2′ pocket largely untouched (Figure S4). Therefore, extension of the thiol group in that direction should allow additional ligand‐protein interactions, leading to a further improved inhibitory potency. […]
# [16] = system: Galleria mellonella larvae; experiment: Galleria mellonella larvae survival model with P. aeruginosa PA14 supernatant; assay type: in vivo; conditions: for survival of larvae: 0.25 nmol compound injected with PA14 supernatant, three days of incubation, compared to PBS injected larvae; for survival of larvae, compound in PBS: compound in PBS without PA14 supernatant
# Experimental: We next analyzed the antivirulence activity of LasB inhibitors in vivo, using a simple model based on G. mellonella larvae. […] We injected the larvae with the supernatant (s.n.) of P. aeruginosa PA14 with or without 0.25 nmol of either 4 or 7 g, incubated them for three days and recorded the survival once per day (Figure 3). […] Treatment of larvae with 0.25 nmol of compound 7 g increased survival up to 60% compared to PBS injected larvae.
# PA14 s.n. was also present during compound treatment. PBS served as a negative control (dot dash). […]
# as §1
# [17] = molecular target: T1, LasB; conditions: read-out: IC50 (known LasB inhibitors); Figure 1, known LasB inhibitors; cited from earlier work
# [18] = system: human hepatoma cell line (HepG2); experiment: Cytotoxicity assay, HepG2; conditions: HepG2, at 100 µM
# [19] = in vitro; conditions: human
# [20] = system: human embryonic kidney (HEK) 293 cells; experiment: Cytotoxicity assay, HEK 293; conditions: HEK cells, at 100 µM
# [21] = in vitro; conditions: human; remark: listed apart in the source
# [22] = in vitro; conditions: human; remark: listed apart in the source
# T1 sequence (Q02RJ6 198-498): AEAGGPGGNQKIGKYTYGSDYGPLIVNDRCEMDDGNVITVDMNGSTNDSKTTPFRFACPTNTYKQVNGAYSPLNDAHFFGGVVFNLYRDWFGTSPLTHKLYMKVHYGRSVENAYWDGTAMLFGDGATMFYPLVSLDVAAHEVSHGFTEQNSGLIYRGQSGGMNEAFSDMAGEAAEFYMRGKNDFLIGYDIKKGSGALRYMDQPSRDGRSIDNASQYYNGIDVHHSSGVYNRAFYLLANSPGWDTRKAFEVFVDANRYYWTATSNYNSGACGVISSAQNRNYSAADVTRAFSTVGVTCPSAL
# Chain of HDAC-3 (O15379 whole entry): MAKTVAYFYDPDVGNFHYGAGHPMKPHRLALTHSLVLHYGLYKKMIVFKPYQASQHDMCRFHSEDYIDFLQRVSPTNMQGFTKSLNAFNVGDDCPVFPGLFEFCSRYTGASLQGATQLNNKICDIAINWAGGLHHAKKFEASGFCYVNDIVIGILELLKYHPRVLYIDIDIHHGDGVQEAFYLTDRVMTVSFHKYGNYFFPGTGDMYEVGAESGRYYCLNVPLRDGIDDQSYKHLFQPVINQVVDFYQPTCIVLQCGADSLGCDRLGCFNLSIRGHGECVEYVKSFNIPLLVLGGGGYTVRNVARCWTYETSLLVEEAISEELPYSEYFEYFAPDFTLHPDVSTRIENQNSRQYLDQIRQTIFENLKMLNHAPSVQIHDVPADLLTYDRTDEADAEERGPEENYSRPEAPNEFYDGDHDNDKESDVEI
# Chain of HDAC-3 (Q9Y618 395-489 partner limits assumed): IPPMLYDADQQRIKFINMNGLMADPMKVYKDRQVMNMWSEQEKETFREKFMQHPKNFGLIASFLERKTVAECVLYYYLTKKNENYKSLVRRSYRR
# Chain of ADAM17 (P78536 215-824): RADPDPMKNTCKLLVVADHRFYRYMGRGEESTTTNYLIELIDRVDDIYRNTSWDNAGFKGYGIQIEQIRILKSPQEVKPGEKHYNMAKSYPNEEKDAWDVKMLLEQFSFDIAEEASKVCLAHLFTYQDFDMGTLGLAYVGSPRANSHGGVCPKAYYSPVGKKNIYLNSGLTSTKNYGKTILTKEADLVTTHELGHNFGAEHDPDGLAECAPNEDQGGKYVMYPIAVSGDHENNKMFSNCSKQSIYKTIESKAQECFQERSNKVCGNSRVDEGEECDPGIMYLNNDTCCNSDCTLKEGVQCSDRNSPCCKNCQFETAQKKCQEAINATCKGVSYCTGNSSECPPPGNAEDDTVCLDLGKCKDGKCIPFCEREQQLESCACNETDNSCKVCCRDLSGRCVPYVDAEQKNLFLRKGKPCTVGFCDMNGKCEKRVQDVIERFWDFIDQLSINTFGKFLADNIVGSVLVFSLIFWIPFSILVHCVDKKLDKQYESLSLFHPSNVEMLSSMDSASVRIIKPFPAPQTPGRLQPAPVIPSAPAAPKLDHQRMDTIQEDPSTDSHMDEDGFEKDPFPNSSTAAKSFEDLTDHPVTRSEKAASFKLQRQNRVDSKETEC
# Chain of MMP-3 (P08254 100-477): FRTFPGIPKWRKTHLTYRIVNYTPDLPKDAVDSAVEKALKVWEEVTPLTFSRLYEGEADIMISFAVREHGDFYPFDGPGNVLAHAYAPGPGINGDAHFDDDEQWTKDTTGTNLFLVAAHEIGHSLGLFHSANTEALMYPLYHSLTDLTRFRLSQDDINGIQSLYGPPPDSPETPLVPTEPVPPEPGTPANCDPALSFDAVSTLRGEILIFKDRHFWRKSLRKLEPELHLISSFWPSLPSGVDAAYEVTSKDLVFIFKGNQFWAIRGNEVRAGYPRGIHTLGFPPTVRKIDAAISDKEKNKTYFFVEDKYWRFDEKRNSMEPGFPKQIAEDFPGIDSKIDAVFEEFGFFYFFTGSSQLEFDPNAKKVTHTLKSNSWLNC
# Chain of MMP-8 (P22894 101-467): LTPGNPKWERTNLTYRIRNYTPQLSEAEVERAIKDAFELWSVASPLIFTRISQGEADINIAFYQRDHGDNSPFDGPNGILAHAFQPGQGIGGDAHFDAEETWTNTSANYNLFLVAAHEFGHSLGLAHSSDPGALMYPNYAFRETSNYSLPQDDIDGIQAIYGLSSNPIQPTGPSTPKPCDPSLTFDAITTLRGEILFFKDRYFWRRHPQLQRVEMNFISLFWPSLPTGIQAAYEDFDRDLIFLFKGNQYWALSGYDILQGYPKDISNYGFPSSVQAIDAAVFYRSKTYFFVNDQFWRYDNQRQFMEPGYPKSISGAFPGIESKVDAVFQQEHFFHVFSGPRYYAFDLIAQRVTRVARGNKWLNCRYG
structure (smiles),measurement,setting,value
O=C(Nc1ccc(Cl)c(Cl)c1)C(S)CC1CCCCC1 (stereo not shown) [7 b],IC50,[1],12 ± 3 µM
O=C(Nc1ccc(Cl)c(Cl)c1)C(S)CC1CC1 (stereo not shown) [7 c],IC50,[1],6.3 ± 1.2 µM
O=C(Nc1ccccc1)C(S)Cc1ccccc1 (stereo not shown) [7 d],fold improvement in IC50 value compared to 7 a,[1]; versus compound 7 a,two‐fold
same,inhibition of MMP-3,[2],n.i. (n.i. = <10% inhibition)
same,inhibition of MMP-1,[3],n.i. (n.i. = <10% inhibition)
same,inhibition of MMP-8,[4],26 ± 4%
same,inhibition of MMP-2,[5],n.i. (n.i. = <10% inhibition)
same,IC50,[6],> 100 µM
same,inhibition of MMP-14,[7],n.i. (n.i. = <10% inhibition)
same,IC50,[8],> 100 µM
same,MIC,[9],> 100 µM
same,MIC,[9]; Pseudomonas aeruginosa,> 100 µM
same,IC50,[10],> 100 µM
same,IC50,[11],> 100 µM
same,inhibition of MMP-7,[12],n.i. (n.i. = <10% inhibition)
same,IC50,[13],> 100 µM
Cc1ccccc1NC(=O)C(S)Cc1ccccc1 (stereo not shown) [7 e],IC50,[1],2.4 ± 1 µM
Cc1cccc(NC(=O)C(S)Cc2ccccc2)c1 (stereo not shown) [7 f],IC50,[1],1 ± 0.4 µM
Cc1ccc(NC(=O)C(S)Cc2ccccc2)cc1 (stereo not shown) [7 g],IC50,[1],0.48 ± 0.04 µM
same,IC50,"[14]; Table S2, read-out: IC50 ADAM17",4.8 ± 1.5 µM
same,IC50,[6],> 100 µM
same,IC50,[8],> 100 µM
same,MIC,[9]; Pseudomonas aeruginosa,> 100 µM
same,Ligand Efficiency (LE),[15],0.43
same,Lipophilic Ligand Efficiency (LLE),[15],2.37
same,survival of larvae,[16],up to 60%
same,"survival of larvae, compound in PBS",[16],100%
same,IC50,[13],> 100 µM
"CC(C)C[C@H](NP(=O)(O)O[C@@H]1O[C@@H](C)[C@H](O)[C@@H](O)[C@H]1O)C(=O)N[C@@H](Cc1c[nH]c2ccccc12)C(=O)O [Compound 1, phosphoramidon]",IC50,[17],0.207 µM
"O=C(CS)Nc1ccc(Cl)c(Cl)c1 [Compound 4, N‐(3,4‐dichlorophenyl) mercaptoacetamide]",inhibition of MMP-3,[2],n.i. (n.i. = <10% inhibition)
same,inhibition of MMP-1,[3],n.i. (n.i. = <10% inhibition)
same,inhibition of MMP-8,[4],n.i. (n.i. = <10% inhibition)
same,inhibition of MMP-2,[5],n.i. (n.i. = <10% inhibition)
same,IC50,[14],> 100 µM
same,reduction in viability,[18],23±3%
same,inhibition of MMP-14,[7],n.i. (n.i. = <10% inhibition)
same,MIC,[9]; Pseudomonas aeruginosa,> 100 µM
same,IC50,[10],> 100 µM
same,IC50,[19],> 100 µM
same,IC50,[11],> 100 µM
same,inhibition of MMP-7,[12],n.i. (n.i. = <10% inhibition)
same,survival of larvae,[16],virtually no improvement in survival
same,"survival of larvae, compound in PBS",[16],100%
same,reduction in viability,[20],33±10%
same,IC50,[21],> 100 µM
same,IC50,[22],> 100 µM
